{"source": "patent US20120095052A1", "about": "“PAR-1 ANTAGONISM IN FED OR ANTACID-DOSED PATIENTS” (priority 2009, published 2012)", "assay": "Clinical study of the effect of food and antacid on pharmacokinetics after a single oral 40 mg tablet in healthy subjects", "format": "in vivo, human", "conditions": "for Tmax / Cmax / half-life / AUC: single 40 mg oral tablet; for Tmax: median; for Cmax / half-life / AUC: po, 40 mg, mean", "protocol": "and or the bisulfate salt thereof in healthy subjects was studied in a clinical trial. The primary objective of the study was to evaluate the effect of food (standardized high-fat breakfast) and antacid (increased gastric pH) on the pharmacokinetics (PK) of\nand or the bisulfate salt thereof administered orally as a 40 mg tablet. A secondary objective was to evaluate the effect of meal timing relative to fasting on the PK of\nThe study was designed as a randomized, open-label, single-dose, parallel-group, single-center study conducted in healthy young adults in conformance with Good Clinical Practice. Healthy male and female subjects between the ages of 18 and 45 years with a body mass index of 19-32 kg/m^2 were eligible for enrollment. Eligible subjects were randomly assigned to receive a single 40 mg dose of\nbasis on Days 7, 14, 21, 28, 35, and 42 (±1 day) after dosing. The bioanalytical assay was an LC-MS/MS assay, LLOQ=1.00 ng/mL.", "key": {"[1]": {"conditions": "40 mg tablet immediately with food vs fasted"}, "[2]": {"conditions": "1 hr after food vs fasted, 40 mg tablet"}, "[3]": {"conditions": "2 hr after food vs fasted, 40 mg tablet"}, "[4]": {"conditions": "Fed (immediately with food) vs fasted, 40 mg tablet"}, "[5]": {"conditions": "antacid co-administration vs alone, fasted subjects"}, "[6]": {"conditions": "fasted subjects, with antacid vs alone, 40 mg tablet"}}, "note": "Read-outs that look alike come from different tables or passages of the source."}
{"smiles": "CCOC(=O)N[C@@H]1CC[C@@H]2[C@@H](C1)C[C@H]1C(=O)O[C@H](C)[C@H]1[C@H]2/C=C/c1ccc(-c2cccc(F)c2)cn1", "note": "[SCH 530348, ethyl [(R1R,3aR,4aR,6R,8aR,9S,9aS)-9-[(E)-2-[5-(3-fluorophenyl)-2-pyridinyl]ethenyl]-dodecahydro-1-methyl-3-oxonaphtho[2,3-c]furan-6-yl] carbamate]", "values": [{"measurement": "increase of peak plasma concentration (Cmax)", "setting": "[1]", "value": 31, "unit": "%"}, {"measurement": "increase of systemic exposure (AUC[l])", "setting": "[1]", "value": 43, "unit": "%"}, {"measurement": "Tmax", "setting": "1 hour after food", "value": 2, "unit": "h"}, {"measurement": "Ratio Estimate Fed vs Fasted, AUC(I) (relative bioavailability)", "setting": "[2]", "value": 143}, {"measurement": "Ratio Estimate Fed vs Fasted, Cmax (relative bioavailability)", "setting": "[2]", "value": 117}, {"measurement": "Tmax", "setting": "2 hours after food", "value": 2, "unit": "h"}, {"measurement": "Ratio Estimate Fed vs Fasted, AUC(I) (relative bioavailability)", "setting": "[3]", "value": 127}, {"measurement": "Ratio Estimate Fed vs Fasted, Cmax (relative bioavailability)", "setting": "[3]", "value": 137}, {"measurement": "Tmax", "setting": "Fasted with antacid", "value": 2, "unit": "h"}, {"measurement": "Ratio Estimate Fed vs Fasted, AUC(I) (relative bioavailability)", "setting": "[4]", "value": 143}, {"measurement": "Ratio Estimate Fed vs Fasted, Cmax (relative bioavailability)", "setting": "[4]", "value": 131}, {"measurement": "reduction of peak plasma concentration (Cmax)", "setting": "[5]", "value": 38, "unit": "%"}, {"measurement": "reduction of systemic exposure (AUC[l])", "setting": "[5]", "value": 15, "unit": "%"}, {"measurement": "Cmax", "setting": "both sexes, human, plasma, 1 hour after food (high-fat breakfast)", "value": 298, "unit": "ng/mL"}, {"measurement": "half-life", "setting": "both sexes, human, plasma, 1 hour after food, n = 9", "value": 12, "unit": "days"}, {"measurement": "AUC", "setting": "both sexes, human, plasma, 1 hour after food, n = 9, read-out: AUC(I)", "value": 26800, "unit": "ng·h/mL"}, {"measurement": "AUC", "setting": "both sexes, human, plasma, 1 hour after food, read-out: AUC(tf)", "value": 23200, "unit": "ng·h/mL"}, {"measurement": "Cmax", "setting": "both sexes, human, plasma, 2 hours after food (high-fat breakfast)", "value": 355, "unit": "ng/mL"}, {"measurement": "half-life", "setting": "both sexes, human, plasma, 2 hours after food, n = 9", "value": 10.1, "unit": "days"}, {"measurement": "AUC", "setting": "both sexes, human, plasma, 2 hours after food, n = 9, read-out: AUC(I)", "value": 23400, "unit": "ng·h/mL"}, {"measurement": "AUC", "setting": "both sexes, human, plasma, 2 hours after food, read-out: AUC(tf)", "value": 22400, "unit": "ng·h/mL"}, {"measurement": "Cmax", "setting": "both sexes, human, plasma, Fasted with antacid (20 mL Gaviscon extra-strength liquid)", "value": 165, "unit": "ng/mL"}, {"measurement": "half-life", "setting": "both sexes, human, plasma, Fasted with antacid, n = 18", "value": 10.2, "unit": "days"}, {"measurement": "AUC", "setting": "both sexes, human, plasma, Fasted with antacid, n = 18, read-out: AUC(I)", "value": 15800, "unit": "ng·h/mL"}, {"measurement": "AUC", "setting": "both sexes, human, plasma, Fasted with antacid, read-out: AUC(tf)", "value": 15000, "unit": "ng·h/mL"}, {"measurement": "Cmax", "setting": "both sexes, human, plasma, Fasted without antacid (after 10-hour fast), healthy subjects", "value": 262, "unit": "ng/mL"}, {"measurement": "half-life", "setting": "both sexes, human, plasma, Fasted without antacid, healthy subjects, n = 19", "value": 10, "unit": "days"}, {"measurement": "AUC", "setting": "both sexes, human, plasma, Fasted without antacid, healthy subjects, n = 19, read-out: AUC(I)", "value": 18400, "unit": "ng·h/mL"}, {"measurement": "AUC", "setting": "both sexes, human, plasma, Fasted without antacid, healthy subjects, read-out: AUC(tf)", "value": 16800, "unit": "ng·h/mL"}, {"measurement": "half-life", "setting": "both sexes, human, plasma, Fed (immediately with food), n = 18", "value": 10.9, "unit": "days"}, {"measurement": "AUC", "setting": "both sexes, human, plasma, Fed (immediately with food), n = 18, read-out: AUC(I)", "value": 26600, "unit": "ng·h/mL"}, {"measurement": "AUC", "setting": "both sexes, human, plasma, Fed (immediately with food), read-out: AUC(tf)", "value": 22800, "unit": "ng·h/mL"}, {"measurement": "Cmax", "setting": "both sexes, human, plasma, Fed (within 5 minutes of completing standardized high-fat breakfast)", "value": 347, "unit": "ng/mL"}, {"measurement": "Tmax", "setting": "both sexes, human, plasma, Fed (immediately with food), read-out: Tmax", "value": 3, "unit": "h"}, {"measurement": "Ratio Estimate with vs without Antacid, AUC(I) (relative bioavailability)", "setting": "[6]", "value": 85}, {"measurement": "Ratio Estimate with vs without Antacid, Cmax (relative bioavailability)", "setting": "[6]", "value": 62}]}
